Test results taken from US10765114B2, “4-amino-6-(pyridyl and 2-substitutedphenyl)-picolinates and 6-amino-2-(pyridyl and 2-substitutedphenyl)-pyrimidine-4-carboxylates and their use as herbicides” (Dow AgroSciences LLC, priority 2013, dated 2020).
Like-named read-outs stand apart in the source and are kept apart here.

Columns and labels:
[1] = system: Key Grass and Sedge Weeds as well as Grass Crops; test: Post-Emergent Test II (Table 6); format: in vivo; details: post-emergence, 336 h, 14 days after application; for pest or weed control at 70 g/ha: 70 g ai/ha; for pest or weed control at 140 g/ha: 140 g ai/ha
Summary of the method: (§1)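 Post-emergence greenhouse spray, 1st-2nd true leaf stage; track sprayer, 187 L/ha; acetone/DMSO stock diluted in aqueous acetone/IPA/DMSO with Atplus 411F and Triton X-155; rates 1× to 1/16×; subirrigated; visual injury 0 (none) to 100% (complete kill) at 14 days.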

[2] = system: Key Broadleaf Weed and Crop Species; test: Post-Emergent Test II (Table 5); format: in vivo; details: post-emergence, 336 h; for pest or weed control at 70 g/ha: application rate 70 (kg ai/ha; footnote: g ai/ha); for pest or weed control at 140 g/ha: application rate 140 (kg ai/ha; footnote: g ai/ha)
Summary of the method: as §1

[3] = CYPSS, read-out: Visual Growth Reduction (%) 14 Days After Application CYPSS
[4] = DIGSA: crabgrass (Digitaria sanguinalis), read-out: Visual Growth Reduction (%) 14 Days After Application DIGSA
[5] = ECHSS, read-out: Visual Growth Reduction (%) 14 Days After Application ECHSS
[6] = ORYSS (crop), read-out: Visual Growth Reduction (%) 14 Days After Application ORYSS
[7] = SETFA: giant foxtail (Setaria faberi), read-out: Visual Growth Reduction (%) 14 Days After Application SETFA
[8] = SORVU: grain sorghum (Sorghum vulgare), read-out: Visual Growth Reduction (%) 14 Days After Application SORVU
[9] = TRZSS (crop), read-out: Visual Growth Reduction (%) 14 Days After Application TRZSS
[10] = ZEAMX: maize, corn (Zea mays), read-out: Visual Growth Reduction (%) 14 Days After Application ZEAMX
[11] = Abutilon theophrasti, ABUTH: velvetleaf (Abutilon theophrasti), read-out: Visual Growth Reduction (%) 14 Days After Application ABUTH
[12] = Amaranthus retroflexus, AMARE: redroot pigweed (Amaranthus retroflexus), read-out: Visual Growth Reduction (%) 14 Days After Application AMARE
[13] = Brassica napus, BRSSS: oilseed rape, canola (Brassica napus), read-out: Visual Growth Reduction (%) 14 Days After Application BRSSS
[14] = Chenopodium album, CHEAL: lambsquarters (Chenopodium album), read-out: Visual Growth Reduction (%) 14 Days After Application CHEAL
[15] = Euphorbia heterophylla, EPHHL: wild poinsettia (Euphorbia heterophylla), read-out: Visual Growth Reduction (%) 14 Days After Application EPHHL
[16] = Helianthus annuus, HELAN: sunflower (Helianthus annuus), read-out: Visual Growth Reduction (%) 14 Days After Application HELAN
[17] = Viola tricolor, VIOTR: wild pansy (Viola tricolor), read-out: Visual Growth Reduction (%) 14 Days After Application VIOTR

Question: What does the source list for Cc1c(-c2cc(N)c(Cl)c(C(=O)O)n2)ccc(Cl)c1Cl [Compound 28]?
Answer: melting point: 174 to 175 °C; pest or weed control at 70 g/ha [1, 3]: 0 to 29%; pest or weed control at 140 g/ha [1, 3]: 0 to 29%; pest or weed control at 70 g/ha [1, 4]: 0 to 29%; pest or weed control at 140 g/ha [1, 4]: 0 to 29%; pest or weed control at 70 g/ha [1, 5]: 0 to 29%; pest or weed control at 140 g/ha [1, 5]: 0 to 29%; pest or weed control at 70 g/ha [1, 6]: 0 to 29%; pest or weed control at 140 g/ha [1, 6]: 0 to 29%; pest or weed control at 70 g/ha [1, 7]: 0 to 29%; pest or weed control at 140 g/ha [1, 7]: 0 to 29%; pest or weed control at 70 g/ha [1, 8]: 0 to 29%; pest or weed control at 140 g/ha [1, 8]: 0 to 29%; pest or weed control at 70 g/ha [1, 9]: 0 to 29%; pest or weed control at 140 g/ha [1, 9]: 0 to 29%; pest or weed control at 70 g/ha [1, 10]: 30 to 44%; pest or weed control at 140 g/ha [1, 10]: 60 to 74%; pest or weed control at 70 g/ha [2, 11]: 95 to 100%; pest or weed control at 140 g/ha [2, 11]: 95 to 100%; pest or weed control at 70 g/ha [2, 12]: 95 to 100%; pest or weed control at 140 g/ha [2, 12]: 95 to 100%; pest or weed control at 70 g/ha [2, 13]: 60 to 74%; pest or weed control at 140 g/ha [2, 13]: 75 to 84%; pest or weed control at 70 g/ha [2, 14]: 95 to 100%; pest or weed control at 140 g/ha [2, 14]: 95 to 100%; pest or weed control at 70 g/ha [2, 15]: 0 to 29%; pest or weed control at 140 g/ha [2, 15]: 0 to 29%; pest or weed control at 70 g/ha [2, 16]: 85 to 94%; pest or weed control at 140 g/ha [2, 16]: 85 to 94%; pest or weed control at 70 g/ha [2, 17]: 0 to 29%; pest or weed control at 140 g/ha [2, 17]: 0 to 29%

Question: What does the source list for Nc1c(F)c(-c2ccc(C(F)F)nc2)nc(C(=O)O)c1Cl [Compound 27, 4-amino-5-chloro-6′-(difluoromethyl)-3-fluoro-[2,3′-bipyridine]-6-carboxylic acid]?
Answer: melting point: 167 to 169 °C; pest or weed control at 70 g/ha [1, 3]: 95 to 100%; pest or weed control at 140 g/ha [1, 3]: 95 to 100%; pest or weed control at 70 g/ha [1, 4]: 75 to 84%; pest or weed control at 140 g/ha [1, 4]: 85 to 94%; pest or weed control at 70 g/ha [1, 5]: 85 to 94%; pest or weed control at 140 g/ha [1, 5]: 85 to 94%; pest or weed control at 70 g/ha [1, 6]: 0 to 29%; pest or weed control at 140 g/ha [1, 6]: 0 to 29%; pest or weed control at 70 g/ha [1, 7]: 75 to 84%; pest or weed control at 140 g/ha [1, 7]: 85 to 94%; pest or weed control at 70 g/ha [1, 8]: 75 to 84%; pest or weed control at 140 g/ha [1, 8]: 85 to 94%; pest or weed control at 70 g/ha [1, 9]: 45 to 59%; pest or weed control at 140 g/ha [1, 9]: 60 to 74%; pest or weed control at 70 g/ha [1, 10]: 60 to 74%; pest or weed control at 140 g/ha [1, 10]: 75 to 84%; pest or weed control at 70 g/ha [2, 11]: 85 to 94%; pest or weed control at 140 g/ha [2, 11]: 95 to 100%; pest or weed control at 70 g/ha [2, 12]: 95 to 100%; pest or weed control at 140 g/ha [2, 12]: 95 to 100%; pest or weed control at 70 g/ha [2, 13]: 85 to 94%; pest or weed control at 140 g/ha [2, 13]: 85 to 94%; pest or weed control at 70 g/ha [2, 14]: 95 to 100%; pest or weed control at 140 g/ha [2, 14]: 95 to 100%; pest or weed control at 70 g/ha [2, 15]: 95 to 100%; pest or weed control at 140 g/ha [2, 15]: 95 to 100%; pest or weed control at 70 g/ha [2, 16]: 95 to 100%; pest or weed control at 140 g/ha [2, 16]: 95 to 100%; pest or weed control at 70 g/ha [2, 17]: 60 to 74%; pest or weed control at 140 g/ha [2, 17]: 60 to 74%

Question: Which results are given for COC(=O)c1nc(-c2ccc(F)nc2)c(F)c(N)c1Cl [Compound 23]?
Answer: melting point: 167 to 168 °C; pest or weed control at 70 g/ha [1, 3]: 0 to 29%; pest or weed control at 140 g/ha [1, 3]: 0 to 29%; pest or weed control at 70 g/ha [1, 4]: 30 to 44%; pest or weed control at 140 g/ha [1, 4]: 45 to 59%; pest or weed control at 70 g/ha [1, 5]: 60 to 74%; pest or weed control at 140 g/ha [1, 5]: 75 to 84%; pest or weed control at 70 g/ha [1, 6]: 0 to 29%; pest or weed control at 140 g/ha [1, 6]: 0 to 29%; pest or weed control at 70 g/ha [1, 8]: 0 to 29%; pest or weed control at 140 g/ha [1, 8]: 0 to 29%; pest or weed control at 70 g/ha [1, 9]: 0 to 29%; pest or weed control at 140 g/ha [1, 9]: 0 to 29%; pest or weed control at 70 g/ha [1, 10]: 0 to 29%; pest or weed control at 140 g/ha [1, 10]: 45 to 59%; pest or weed control at 70 g/ha [2, 11]: 75 to 84%; pest or weed control at 140 g/ha [2, 11]: 85 to 94%; pest or weed control at 70 g/ha [2, 12]: 95 to 100%; pest or weed control at 140 g/ha [2, 12]: 95 to 100%; pest or weed control at 70 g/ha [2, 13]: 45 to 59%; pest or weed control at 140 g/ha [2, 13]: 75 to 84%; pest or weed control at 70 g/ha [2, 14]: 95 to 100%; pest or weed control at 140 g/ha [2, 14]: 95 to 100%; pest or weed control at 70 g/ha [2, 15]: 75 to 84%; pest or weed control at 140 g/ha [2, 15]: 85 to 94%; pest or weed control at 70 g/ha [2, 16]: 85 to 94%; pest or weed control at 140 g/ha [2, 16]: 85 to 94%; pest or weed control at 70 g/ha [2, 17]: 30 to 44%; pest or weed control at 140 g/ha [2, 17]: 45 to 59%
